Assay results reported in US7449480B2, “Small molecule inhibitors of HER2 expression” (Baylor College of Medicine, priority 2002, dated 2008).
Entries after “also recorded” stand apart in the source; their conditions may differ.

What was measured:
Sur-2 = target: T1, Sur-2 (Homo sapiens, UniProt Q9ULK4); experiment: Sur-2 interaction of biotin conjugate in HeLa cell nuclear extracts (Neutravidin affinity, western blot); type: binding; conditions: 100 μM, 4° C., 24 hrs
T1 construct: HeLa cell nuclear extracts were prepared as described47 and incubated with a biotin conjugate of wrenchnolol (8); endogenous in cells; host or cells: HeLa cell nuclear extracts
T1 sequence (Q9ULK4 1-1368): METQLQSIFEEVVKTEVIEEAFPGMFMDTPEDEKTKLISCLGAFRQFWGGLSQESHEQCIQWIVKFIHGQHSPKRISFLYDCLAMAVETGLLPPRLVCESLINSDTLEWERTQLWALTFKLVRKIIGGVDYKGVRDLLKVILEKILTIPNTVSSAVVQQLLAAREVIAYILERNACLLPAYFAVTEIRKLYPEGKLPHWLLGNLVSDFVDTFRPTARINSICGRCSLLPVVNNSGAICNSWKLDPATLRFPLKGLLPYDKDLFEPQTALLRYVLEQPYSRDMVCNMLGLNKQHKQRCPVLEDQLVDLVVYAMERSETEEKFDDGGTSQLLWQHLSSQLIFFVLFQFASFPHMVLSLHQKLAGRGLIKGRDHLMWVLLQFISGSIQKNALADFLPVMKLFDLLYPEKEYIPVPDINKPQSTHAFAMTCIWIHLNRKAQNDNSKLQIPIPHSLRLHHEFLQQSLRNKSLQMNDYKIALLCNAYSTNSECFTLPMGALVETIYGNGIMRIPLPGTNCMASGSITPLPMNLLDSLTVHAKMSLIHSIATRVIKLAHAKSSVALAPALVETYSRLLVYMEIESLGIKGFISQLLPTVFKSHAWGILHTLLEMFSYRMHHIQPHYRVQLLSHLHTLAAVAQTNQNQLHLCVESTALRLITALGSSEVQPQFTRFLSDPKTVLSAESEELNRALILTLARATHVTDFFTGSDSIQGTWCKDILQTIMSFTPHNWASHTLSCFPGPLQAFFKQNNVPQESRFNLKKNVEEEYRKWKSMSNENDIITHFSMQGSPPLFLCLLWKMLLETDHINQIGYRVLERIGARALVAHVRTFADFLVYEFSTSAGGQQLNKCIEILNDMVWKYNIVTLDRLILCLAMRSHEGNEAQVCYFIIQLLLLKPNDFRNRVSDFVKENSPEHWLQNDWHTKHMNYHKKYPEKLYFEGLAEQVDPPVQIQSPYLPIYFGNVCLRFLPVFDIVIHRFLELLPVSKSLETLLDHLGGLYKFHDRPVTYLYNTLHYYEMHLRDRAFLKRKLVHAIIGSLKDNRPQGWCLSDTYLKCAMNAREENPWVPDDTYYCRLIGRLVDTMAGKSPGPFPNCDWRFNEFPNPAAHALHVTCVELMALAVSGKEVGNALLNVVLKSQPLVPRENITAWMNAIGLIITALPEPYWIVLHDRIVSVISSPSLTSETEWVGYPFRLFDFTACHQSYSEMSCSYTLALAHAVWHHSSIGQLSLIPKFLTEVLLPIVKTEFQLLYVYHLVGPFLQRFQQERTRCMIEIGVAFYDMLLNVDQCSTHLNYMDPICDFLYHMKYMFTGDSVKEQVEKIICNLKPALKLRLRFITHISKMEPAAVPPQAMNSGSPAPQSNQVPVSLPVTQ
Experimental: (§1) HeLa cell nuclear extracts were prepared as described47 and incubated with a biotin conjugate of wrenchnolol (8) (100 μM) at 4° C. for 24 hrs. The samples were incubated with Neutravidin affinity resin (Pierce) at 4° C. for 2 hrs and extensively washed with PBS buffer containing 0.5% Nonidet P-40. The bound proteins were then separated by SDS/PAGE and analyzed by western blots with an antibody against human Sur-2 or by silver-staining. A=Ao+0.5.e([9]o+(([9]o+[P]oKd)2−4[9]o[P]o)0.5)
To confirm the interaction of wrenchnolol with Sur-2 in a cellular context, a biotin conjugate of wrenchnolol (8) was synthesized (Scheme 1) and incubated with cell nuclear extracts. The bound proteins were purified through an avidin affinity column, separated on an SDS-PAGE gel, and analyzed by western blots with a Sur-2 antibody. […] One of the silver-stained bands matched the western-blotted band of Sur-2, while the identities of the other bands remained unknown. Sur-2 (also called DRIP130 or CRSP130) is a subunit of the human mediator complexes. The additional bands may include those of the other subunits copurified with Sur-2.

MCF-7 Her18 = experiment: Cell death in MCF7 cells stably transfected with the Her2 gene; type: cell-based, human; conditions: ectopic Her2 on a heterologous promoter
Source text: In contrast to the Her2-overexpressing cells, MDA-MB-468, a breast cancer cell line with no detectable levels of Her2, was resistant to TAT-ESX129-145 (FIGS. 5A and 5B). […] The effects of TAT-ESX129-145 on an MCF7 cell line stably transfected with the Her2 gene were examined.

VP16 activation domain = experiment: Transcription reporter gene assay (GAL4 fusion, SEAP), VP16 activation domain; type: cell-based; conditions: HEK293 cells, 20 μM, 10-hr incubation
Experimental: (§2) Mammalian expression vectors each encoding the activation domain of ESX, VP16, or NFκBp65 fused with the GAL4 DNA-binding domain were used. Each expression construct was co-transfected to HEK293Tag human kidney cells together with a reporter plasmid in which the production of secreted alkaline phosphatase (SEAP) is under control of an IL-2 promoter carrying five GAL4 binding sites. After a 24 hour incubation in the presence or absence of adamanolol, an aliquot of the culture was assayed for SEAP activity. The total amounts of transfected DNA were normalized.
(§3) mammalian expression vectors, each encoding the activation domain of ESX, VP16, or NF-κB p65 fused with the GAL4 DNA-binding domain (amino acids 1-94), were used. Each expression construct was co-transfected to HEK293Tag human kidney cells together with a reporter plasmid in which the production of secreted alkaline phosphatase (SEAP) is under control of an IL2 promoter carrying five GAL4 binding sites. After 10-hr incubation with wrenchnolol (20 μM), an aliquot of the culture was assayed for SEAP activity.

Sur-2 (GST-Sur2352-625) = target: T2, Sur-2 (GST-Sur2352-625) (Homo sapiens, UniProt Q9ULK4); experiment: Fluorescence perturbation of fluorescein conjugate 9 by GST-Sur2352-625; type: binding; conditions: measured with fluorescein conjugate 9, emission at 522 nm
T2 construct: made in house
T2 sequence (Q9ULK4 352-625): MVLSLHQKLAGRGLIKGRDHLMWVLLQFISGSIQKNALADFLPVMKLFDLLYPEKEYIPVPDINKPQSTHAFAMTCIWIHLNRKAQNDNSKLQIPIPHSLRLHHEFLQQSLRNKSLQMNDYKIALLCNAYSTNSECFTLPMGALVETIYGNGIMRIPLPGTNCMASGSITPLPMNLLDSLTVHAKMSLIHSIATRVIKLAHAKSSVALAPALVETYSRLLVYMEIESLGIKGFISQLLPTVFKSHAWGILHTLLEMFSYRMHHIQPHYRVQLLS
Experimental: as §1
Where A and Ao are the values of fluorescence intensity of 9 in the presence or absence of GST-Sur2352-625, respectively, and .e is the differential fluorescence intensity of 1 μM of 9 in the presence of an infinite concentration of protein and in its absence. [9]o and [P]o are the total concentrations of 9 and protein added, respectively.
The fluorescein conjugate 9 also enabled evaluation of the Kd value of the interaction between wrenchnolol and Sur-2 in vitro. Shown in FIG. 22C are relative emission intensities of 9 at 522 nm (excitation: 490 nm) in the presence of varied concentrations of GST-Sur2352-625. When a GST fusion of Sur-2 protein (GST-Sur2352-625) was added to a solution of conjugate 9, the fluorescence intensity of 9 at 522 nm was decreased ([…]).

ESX-Sur-2 interaction = target: T3, ESX-Sur-2 interaction (Homo sapiens, UniProt Q9ULK4); experiment: Inhibition of the ESX-Sur-2 interaction in vitro (fluorescence of FITC-ESX129-145 with GST-Sur2352-625); type: binding
T3 construct: made in house
T3 sequence (Q9ULK4 352-625): T2 sequence (Q9ULK4 352-625)
Experimental: To monitor the ESX-DRIP130 interaction, we labeled ESX129-145 with fluorescein isothiocyanate (FITC; Pierce) at the Lys144 position and measured its fluorescence spectra upon adding the glutatathione-S′-transferase (GST) fusion of DRIP130352-625. ESX129-145 was synthesized by standard Fmoc chemistry (the NH2 terminus was capped by an acetyl group during the synthesis) and purified by HPLC. The peptide was then coupled with FITC at the Lys144 position in a conjugation buffer (100 mM carbonate-bicarbonate buffer, pH 9) in dark and purified by NAP-5 desalting column (Amersham). The labeled peptide was quantified by UV and visible absorbance.
GST-Sur-2352-625 was expressed and purified. Varied concentrations of the fusion protein were added to FITC-ESX129-145 (10 nM) in phosphate buffered saline containing 2% (v/v) ethanol, and the fluorescence spectra of FITC-ESX129-145 were measured by an ABI LS-50B Fluorescence Spectrometer (Ex: 490 nm). The dissociation constant of the interaction was estimated to be 12 μM through the emission perturbation at 522 nm.
To examine the effects of adamanolol on the interaction in vitro, the ethanol component of the binding buffer was replaced with an ethanolic solution of adamanolol. The fractions of FITC-ESX129-145 (10 nM) bound to 50 μM of GST-Sur-2352-625 were estimated by measuring fluorescence emission at 522 nm. ESX129-145 and pindolol were used as positive and negative controls, respectively.
In another series of derivatives (the R3 substituents in Table 1), the adamantane group of adamanolol was substituted (11a-d). […] The binding fractions were calculated on the basis of fluorescence spectra of FITC-ESX129-145 (152 nM) in presence of GST-Sur2352-625 (212 nM) and varied concentrations of each adamanolol derivative.

ESX activation domain = experiment: Transcription reporter gene assay (GAL4 fusion, SEAP), ESX activation domain; type: cell-based, human; conditions: HEK293 cells, 20 μM, 10-hr incubation
Experimental: as §2, §3

[1] = tested on: NF-κB p65 activation domain; experiment: Transcription reporter gene assay (GAL4 fusion, SEAP), NF-κB p65 activation domain; type: cell-based, human; conditions: HEK293 cells, 20 μM, 10-hr incubation
Experimental: as §3

[2] = tested on: SK-BR3 breast cancer cells; experiment: Cell viability assay (WST-1) in SK-BR3 breast cancer cells; type: cell-based, human
Experimental: SK-BR3 breast cancer cells were plated on 96-well plates at density of 5×10^3 cells/well and maintained for 24 hrs. The cells were then incubated with varied concentrations of each compound for 48 hrs, followed by addition of Premix WST-1 Solution (Takara). Cell viability was estimated by measuring absorbance at 450 nm after 1 hr with a SPECTRAmax microplatereader.

[3] = Solubility in neutral aqueous solution; type: physicochemical; conditions: amino group of the handle protonated
Experimental: When the amino group of the handle was protonated, wrenchnolol (7b) and its aminopropyl version (7a) became soluble up to ˜1 mM in neutral aqueous solution. The high water solubility enabled NMR analysis of these molecules in a buffered aqueous solution, and their proton signals were completely assigned through a combination of NOESY, DQF-COSY, and HOHAHA data sets (Table S1).

Her2 = Her2 protein expression by western blot of cell lysates; type: cell-based, human; conditions: SK-BR3 cells, 7 μM, 24 hrs; alpha-tubulin not reduced
Source text: Sur-2 is a human homolog of […] elegans Sur-2, a protein of unknown function whose mutations suppress the phenotype of an activated ras mutation (Singh et al., 1995), and it has been linked to the transcription-activating function of the adenovirus E1A protein and the Elk-1 transcription factor. […] To test this, we designed a cell-permeable peptide that binds Sur-2 (referred to as TAT-ESX129-145). The design takes advantage of the binding affinity of ESX129-145 and the cell internalization property of the 11-aa peptide derived from the HIV TAT protein. We first examined whether TAT ESX129-145 reduces endogenous expression of the Her2 gene in three Her2-overexpressing breast cancer cell lines, SK-BR-3, MDA-MB-453, and […] (FIG. 4). Cells were incubated in the presence or absence of TAT-ESX129-145, and the protein levels of Her2 were examined by Western blot analyses of normalized amounts of cell lysates.
Her2-overexpressing SK-BR3 cells were treated by 7.3 μM of adamanolol for 24 hrs, and whole cell lysates were analyzed by western blots. […]
SK-BR3 cells were treated by 7 μM of wrenchnolol for 24 hrs, and whole cell lysates were analyzed by western blots. […]

For O=C(O)CCCC[C@@H]1SC[C@@H]2NC(=O)N[C@@H]21 [Compound 13], the “retention of Sur-2 protein on the affinity column” value (Sur-2) was “no Sur-2 protein was detected”.
In the case of “ESX129-145: 17-aa segment of the ESX activation domain (TSSSSDELSWIIELLEK; UniProt P78545 129-145, looked up, fragment)”, the “peptide-mediated cell death in Her2-transfected MCF7 cells” value (MCF-7 Her18) is reported as “resistant”.
For Cc1ccc(S(=O)(=O)n2ccc3c(OCC(O)CN(CCCCCN)C(=O)N4CCC(C5CCN(C(=O)C67CC8CC(CC(C8)C6)C7)CC5)CC4)cccc32)cc1 (stereo not drawn) [Compound 7b, Wrenchnolol], the “effect on the VP16 activation domain” value (VP16 activation domain) was “much milder effects”, the “Kd of the wrenchnolol-Sur-2 interaction” value (Sur-2 (GST-Sur2352-625)) was “low μM range” and the IC50 (ESX-Sur-2 interaction; FITC-ESX129-145 (152 nM), GST-Sur2352-625 (212 nM)) was 10 ± 1.5 µM. The “inhibition of the ESX-Sur-2 interaction in vitro (in words)” value (ESX-Sur-2 interaction; in vitro fluorescence assay) was “more strongly than adamanolol”, the “ability of the ESX activation domain to activate the reporter gene” value (ESX activation domain) was “impaired; also recorded: selectively impairs” and the “effect on the NF-κB p65 activation domain” value [1] was “much milder effects”. For the same compound, the IC50 ([2]; 48 hrs incubation, WST-1) was 6.9 µM, the “ability to kill SK-BR3 cells (biological activity, in words)” value ([2]; compared with adamanolol) was “no less active than adamanolol” and the “solubility in neutral aqueous solution” value [3] was ~1000 µM. The “expression of Her2 protein” value (Her2) was “reduces; also recorded: inhibition of Her2 protein expression”.
